Test results as given in US12649722B2, “Herbicidal cinnoline derivatives” (SYNGENTA CROP PROTECTION AG, priority 2020, dated 2026).

Columns and labels:
Type in all cases: in vivo
[1] = tested on: Solarium nigrum (SOLNI); assay: Pre-emergence Test, SOLNI; settings: 1000 g/ha, evaluated after 13 days
[2] = tested on: Amaranthus retoflexus (AMARE); assay: Post-emergence Test, AMARE; settings: sprayed after 8 days cultivation, 1000 g/ha, evaluated after 13 days
How it was run: (§1)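 Pots sown with AMARE, SOLNI, SETFA, LOLPE, ECHCG, IPOHE, kept in glasshouse (24/16 °C, 14 h light, 65% humidity), sprayed at 1000 g/ha unless stated, in acetone/water 50:50 with 0.5% Tween 20. Damage scored after 13 days on a 0–5 scale (5=81–100%, 0=0%).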

[3] = tested on: Setaria faberi (SETFA); assay: Post-emergence Test, SETFA; settings: sprayed after 8 days cultivation, 1000 g/ha, evaluated after 13 days
How it was run: as §1

[4] = tested on: ABUTH; assay: Pre-emergence Test, ABUTH; settings: 1000 g/ha, evaluated after 13 days
[5] = tested on: Amaranthus retoflexus (AMARE); assay: Pre-emergence Test, AMARE; settings: 1000 g/ha, evaluated after 13 days
[6] = tested on: Echinochloa crus-galli (ECHCG); assay: Pre-emergence Test, ECHCG; settings: 1000 g/ha, evaluated after 13 days
[7] = tested on: Ipornoea hederacea (IPOHE); assay: Post-emergence Test, IPOHE; settings: sprayed after 8 days cultivation, 1000 g/ha, evaluated after 13 days
How it was run: as §1

[8] = tested on: ZEAMX; assay: Pre-emergence Test, ZEAMX; settings: 1000 g/ha, evaluated after 13 days
[9] = tested on: Ipornoea hederacea (IPOHE); assay: Pre-emergence Test, IPOHE; settings: 1000 g/ha, evaluated after 13 days
[10] = tested on: ABUTH; assay: Post-emergence Test, ABUTH; settings: sprayed after 8 days cultivation, 1000 g/ha, evaluated after 13 days
[11] = tested on: Solarium nigrum (SOLNI); assay: Post-emergence Test, SOLNI; settings: sprayed after 8 days cultivation, 1000 g/ha, evaluated after 13 days
Protocol: (§2) Seeds of a variety of test species are sown in standard soil in pots (Amaranthus retoflexus (AMARE), Solarium nigrum (SOLNI), Setaria faberi (SETFA), Lolium perenne (LOLPE), Echinochloa crus-galli (ECHCG), Ipornoea hederacea (IPOHE)). After 8 days cultivation under controlled conditions in a glasshouse (at 24° C./16° C., day/night; 14 hours light; 65% humidity), the plants are sprayed with an aqueous spray solution derived from the formulation of the technical active ingredient in acetone/water (50:50) solution containing 0.5% Tween 20 (polyoxyethylene sorbitan monolaurate, CAS RN 9005-64-5). Compounds are applied at 1000 g/ha unless otherwise stated. The test plants are then grown in a glasshouse under controlled conditions in a glasshouse (at 24° C./16° C., day/night; 14 hours light; 65% humidity) and watered twice daily. After 13 days the test is evaluated for the percentage damage caused to the plant. The biological activities are shown in the following table on a five-point scale (5=81-100%; 4=61-80%; 3=41-60%; 2=21-40%; 1=10-20%; 0=0%; −=not tested).

[12] = tested on: Setaria faberi (SETFA); assay: Pre-emergence Test, SETFA; settings: 1000 g/ha, evaluated after 13 days
[13] = tested on: Lolium perenne (LOLPE); assay: Post-emergence Test, LOLPE; settings: sprayed after 8 days cultivation, 1000 g/ha, evaluated after 13 days
Protocol: as §2

[14] = tested on: Echinochloa crus-galli (ECHCG); assay: Post-emergence Test, ECHCG; settings: sprayed after 8 days cultivation, 1000 g/ha, evaluated after 13 days
How it was run: as §1

[15] = tested on: Lolium perenne (LOLPE); assay: Pre-emergence Test, LOLPE; settings: 1000 g/ha, evaluated after 13 days
[16] = tested on: ZEAMX; assay: Post-emergence Test, ZEAMX; settings: sprayed after 8 days cultivation, 1000 g/ha, evaluated after 13 days

Structure (SMILES)	percentage damage caused to the plant, SOLNI [1]	percentage damage caused to the plant, AMARE [2]	percentage damage caused to the plant, SETFA [3]	percentage damage caused to the plant, ABUTH [4]	percentage damage caused to the plant, AMARE [5]	percentage damage caused to the plant, ECHCG [6]	percentage damage caused to the plant, IPOHE [7]	percentage damage caused to the plant, ZEAMX [8]	percentage damage caused to the plant, IPOHE [9]	percentage damage caused to the plant, ABUTH [10]	percentage damage caused to the plant, SOLNI [11]	percentage damage caused to the plant, SETFA [12]	percentage damage caused to the plant, LOLPE [13]	percentage damage caused to the plant, ECHCG [14]	percentage damage caused to the plant, LOLPE [15]	percentage damage caused to the plant, ZEAMX [16]
CO/N=C(\C)c1cccc2c1c(=O)c(C(=O)O)nn2-c1ccc(OC(F)(F)F)cc1 [Compound P2, 5-[(E)-N-methoxy-C-methyl-carbonimidoyl]-4-oxo-1-[4-(trifluoromethoxy)phenyl] cinnoline-3-carboxylic acid]	2 (2=21-40%)	1 (1=10-20%)	4 (4=61-80%)	3 (3=41-60%)	0 (0=0%)	5 (5=81-100%)	3 (3=41-60%)	4 (4=61-80%)	2 (2=21-40%)	4 (4=61-80%)	2 (2=21-40%)	5 (5=81-100%)	3 (3=41-60%)	4 (4=61-80%)	4 (4=61-80%)	3 (3=41-60%)
COC(=O)c1nn(-c2ccc(OC(F)(F)F)cc2)c2cccc(C#N)c2c1=O [Compound P7, methyl 5-cyano-4-oxo-1-[4-(trifluoromethoxy)phenyl] cinnoline-3-carboxylate]	0 (0=0%)	1 (1=10-20%)	1 (1=10-20%)		0 (0=0%)	2 (2=21-40%)	0 (0=0%)		0 (0=0%)		2 (2=21-40%)	1 (1=10-20%)	0 (0=0%)	1 (1=10-20%)	0 (0=0%)	
CC(=O)c1cccc2c1c(=O)c(C(=O)O)nn2-c1ccc(OC(F)(F)F)cc1 [Compound P10, 5-acetyl-4-oxo-1-[4-(trifluoromethoxy)phenyl] cinnoline-3-carboxylic acid]	1 (1=10-20%)	1 (1=10-20%)	4 (4=61-80%)		1 (1=10-20%)	5 (5=81-100%)	4 (4=61-80%)		0 (0=0%)		4 (4=61-80%)	5 (5=81-100%)	4 (4=61-80%)	4 (4=61-80%)	4 (4=61-80%)	
O=C(O)c1nn(-c2ccc(Cl)cc2)c2cccc(Oc3ccc(F)cc3)c2c1=O [Compound P11, 1-(4-chlorophenyl)-5-(4-fluorophenoxy)-4-oxo-cinnoline-3-carboxylic acid]	5 (5=81-100%)	5 (5=81-100%)	0 (0=0%)		3 (3=41-60%)	0 (0=0%)	0 (0=0%)		0 (0=0%)		1 (1=10-20%)	0 (0=0%)	0 (0=0%)	0 (0=0%)	0 (0=0%)	
